The values that follow come from patent publication US9662341B2, “Multifunctional topical formulation for the treatment of acne vulgaris and other skin conditions” (Kantian Sciences Corporation, priority 2011, dated 2017).

One series deals with E. coli. Description: Kill of E. coli within 30 seconds of contact (inventor's earlier studies). It is filed as cell-based.
For series [1] the following is noted: HONO form in ratios of >~2:1 acid/salt.
Series [2] is described as follows: Percentage of mandelic acid in acid and salt forms at varying pH values. It is filed as physicochemical. The source says:
The same consideration of activity vs. acid:salt forms applies to mandelic acid, where the antimicrobial activity of an aqueous solution containing this material is strongly dependent on the pH of the system.

For a further series, the system named is acne. Particulars: cited from earlier work.

Like-named read-outs stand apart in the source and are kept apart here.

For the compound `O=NO` [Nitrite], the Nitrite % by setting is: (pH 1.5) 1.6%; (pH 2.0) 4.8%; (pH 2.3) 9.1%; (pH 2.6) 16.7%; (pH 2.8) 24.0%; (pH 3.0) 33.3%. For the same compound, the Nitrite % worked out at 50.0% (pH 3.3); 61.2% (pH 3.5); 83.4% (pH 4.0); 94.0% (pH 4.5); 98.0% (pH 5.0).

As for `CC(O)C(=O)O` (centres unmarked) [lactic acid], the “E. coli killed relative to malic acid” value in the series with E. coli amounted to 500 times.

`O=NO` [nitrous acid]: the “Nitrous Acid %” value reads like this: (pH 1.5) 98.4%; (pH 2.0) 95.2%; (pH 2.3) 90.9%; (pH 2.6) 83.3%; (pH 2.8) 76.0%; (pH 3.0) 66.7%. Also, the “Nitrous Acid %” value (pH 3.3) worked out at 50.0%; the “Nitrous Acid %” value (pH 3.5) was determined as 38.8%; the “Nitrous Acid %” value (pH 4.0) turned out to be 16.6%; the “Nitrous Acid %” value (pH 4.5) is 6.0%; the “Nitrous Acid %” value (pH 5.0) is 2.0%. In series [1], the “longer-range stability of nitrous acid systems” value is given as “significantly diminished”.

Consider `O=C(O)[C@H](O)c1ccccc1` [Mandelate], for which the Mandelate % in series [2] (pH 2.46) is listed as 10%; in series [2] (pH 2.81) it was 20%; in series [2] (pH 3.04) it was 30%; in series [2] (pH 3.23), 40%; in series [2] (pH 3.41) it was 50%; in series [2] (pH 3.59), 60%. Besides, the Mandelate % in series [2] (pH 3.78) was determined as 70%; in series [2] (pH 4.01) it was 80%.

With `O=C(O)C(O)c1ccccc1` (centres unmarked) [mandelic acid], the “Mandelic Acid %” value in series [2] (pH 2.46) is given as 90%; in series [2] (pH 2.81) it was 80%; in series [2] (pH 3.04) it was 70%; in series [2] (pH 3.23), 60%; in series [2] (pH 3.41), 50%; in series [2] (pH 3.59), 40%. For the same compound, the “Mandelic Acid %” value in series [2] (pH 3.78) is reported as 30%; in series [2] (pH 4.01), 20%. For the same compound, in the series with E. coli, the “E. coli killed relative to malic acid” value is given as 1.5 million. Moreover, the “E. coli killed relative to lactic acid” value in the series on E. coli (same conditions) was 3000 times.

`O=C(O)CCCCCCCC(=O)O` [azelaic acid]: in the series with acne (after starting topical application), the “Time for acne lesions to start disappearing” value is “one to two months”. Moreover, the “Efficacy versus other topical Rx formulations” value in the series with acne (benzoyl peroxide, tretinoin, antibiotics as comparators) was “works as well as other topical Rx formulations”.
